What was measured:
[1] = system: remyelination in cuprizone-induced demyelination; experiment: Mouse cuprizone-induced demyelination model (Black-gold II staining); assay type: in vivo, C57BL/6 mice; details: forebrain and hindbrain; for myelin staining intensity of corpus callosum (percentage of mean density of naïve control): vehicle 15.75%; for demyelination area, corpus callosum: vehicle 54.81%
Protocol: The ability of the compound of Example 1 to enhance in vivo remyelination was determined with the mouse cuprizone-induced demyelination model.
The cuprizone model was conducted with the protocol as follows: the C57BL/6 mice at age of 8 weeks were fed with powder mouse food mixed freshly with 0.2% cuprizone (w/w) for 5 weeks to induce demyelination, then animals were allowed to recover (removal of cuprizone from the diet) and administrated with Example compound 1, at 0.3 mg/kg, 1 mg/kg, 3 mg/kg and 10 mg/kg body weight orally, b.i.d. for an additional 9 days prior to sacrifice. The brain samples were collected for assessment of myelination. The compound of Example 1 was formulated as a suspension using 1% aqueous methylcellulose as the vehicle.
Mice were deeply anesthetized and quickly perfused with 0.9% saline via the left cardiac ventricle to drain out blood. Whole brains were taken out and put into 15 ml tube with 4% paraformaldehyde (PFA) for post-fixation overnight, then soaked in 30% sucrose for 24-48 h to dehydrate. For frozen embedding, brains were immediately snap frozen in isopentane mixed with dry ice and then embedded in optimal cutting temperature solution (OCT). Whole brains were sectioned at coronal position from Bregma −2.46 mm to 1.18 mm according to mouse atlas by Paxinos and Franklin (The Mouse Brain in Stereotaxic Coordinates—3rd Edition) with cryostat (MICROM HM525) at a thickness of 30 μm. All sections were put into 96-well plate filled with anti-freezing solution [300 g sucrose dissolved in 500 ml 0.1 M PB solution (combine 11.505 g Na2HPO4 and 2.275 g NaH2PO4, dilute to 1 L with distilled water, adjust pH to 7.4) plus 300 ml Ethylene glycol and dilute to 1 L with distilled water]. For Black-gold II staining, 2 sections from forebrain around the bregma 0.86 mm and 2 sections from hindbrain around the bregma −1.58 mm for each mouse respectively were chosen according to mouse atlas by Paxinos and Franklin. Black-gold II staining for detection of myelination was performed according to a protocol adapted from the manufacturer (AG105, Millipore). Briefly, 2 free-floating sections from forebrain and 2 sections from hindbrain were rehydrated 2× in MilliQ water for 2 minutes each time and then stained in a 24-well plate with 0.3% Black-gold II solution at 60° C. for 20 minutes. The sections were monitored to determine the extent of staining. When the finest myelinated fibers were stained dark red to black, the staining process was stopped. The sections were then rinsed 2× in MilliQ water for 2 minutes each time. Then the sections were treated with Sodium thiosulfate solution (1%) for 6 minutes at 60° C. After rinsing in PBST (0.05% Triton X100 in PBS), sections were mounted on slides (Leica Microsystems Plus Slides) and further air-dried on 37° C. heating platform for 2-4 hours. The dehydrated slides were coverslipped with robotic coverslipper (CV5030, Leica). Stained slides were scanned by Scanscope (Aperio Technologies Inc.). Digital images of central corpus callosum or cortex close to cingulum were captured using ImageScope (Aperio Technologies Inc.) at the magnification of 20×.
Image-Pro 6.3 software (Media Cybernetics, Bethesda, Md. 20814 USA) was used for subsequent quantitative evaluation. Threshold was set to Black-gold II staining in each gated corpus callosum and held constant for images obtained at equal objectives and light intensities on slides that were processed. Two parameters were used here: area and IOD (Integrated Optical Density). For measurement of demyelination area, all digital images were set under the same colour range after converted to a greyscale value of 8. Demyelination area indicated by void of Black-gold staining and total area of central corpus callosum at 20× magnification were measured separately on each image. Mean demyelination area was calculated as: (demyelination area/total area of central corpus callosum)×100. […]

H3R = molecular target: T1, H3R (Rattus norvegicus, UniProt Q9QYN8); experiment: Histamine H3R functional inverse agonist assay with OPCs (cAMP assay); assay type: cell-based; details: 30 nM to 3 µM compound, Forskolin 3 µM, absence of H3R agonist
T1 construct: endogenous in cells; host or cells: oligodendrocyte precursor cells (OPCs), untransfected
Protocol: Histamine receptor 3 (H3R), expressed on cell surface, is negatively coupled to adenylyl cyclase, which stimulates the formation of cyclic AMP (cAMP). In the absence of histamine, the constitutively active H3R would inhibit intracellular level of cAMP. Inverse agonists of H3R, which block constitutive activity of H3R, thus would raise the cAMP level. The ability of Example compound 2 to inhibit constitutive activity of H3R was determined in a cellular cAMP assay.
For each compound being assayed, OPCs were seeded in PO coated 96-well plate at a density of 20000 cells/well, and cultured in BDM with bFGF (10 ng/ml Petrotech) and PDGF (10 ng/ml Petrotech) for 24 hours. The cells were first treated with different concentration of example compound (30 nM to […]) for 30 minutes. Then the cells were stimulated with Forskolin ([…], Sigma) in the presence of the example compound for 15 minutes. The cAMP concentrations were measured by the cAMP Chemiluminescent Immunoassay Kit (Invitrogen, Cat. No. C10557). The cells were lysed with lysis buffer (60 μL, Invitrogen Kit reagent) at 37° C. for 30 minutes. […] Chemiluminescence signal was measured in a SpectraMax M5 Multi-Mode Microplate Readers (Molecular Devices) for 1 second per well.

T1 sequence (Q9QYN8 whole entry): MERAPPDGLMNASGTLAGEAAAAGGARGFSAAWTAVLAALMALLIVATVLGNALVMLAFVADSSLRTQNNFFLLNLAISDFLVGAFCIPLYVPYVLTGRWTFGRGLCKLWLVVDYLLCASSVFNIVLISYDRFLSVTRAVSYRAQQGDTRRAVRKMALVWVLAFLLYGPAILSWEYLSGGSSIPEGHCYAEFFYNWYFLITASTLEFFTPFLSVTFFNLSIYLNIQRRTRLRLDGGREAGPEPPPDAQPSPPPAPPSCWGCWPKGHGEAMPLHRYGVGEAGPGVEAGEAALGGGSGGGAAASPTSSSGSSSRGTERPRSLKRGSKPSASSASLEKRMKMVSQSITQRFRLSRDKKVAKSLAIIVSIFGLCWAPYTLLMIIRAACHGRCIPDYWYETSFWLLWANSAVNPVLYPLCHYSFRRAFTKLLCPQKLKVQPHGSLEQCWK

Forskolin-stimulated cAMP level in primary OPCs (H3R)	Compound	myelin staining intensity of corpus callosum (percentage of mean density of naïve control) ([1]; 0.3 mg/kg orally b.i.d. 9 days)	demyelination area, corpus callosum ([1]; 0.3 mg/kg orally b.i.d. 9 days)	myelin staining intensity of corpus callosum (percentage of mean density of naïve control) ([1]; 1 mg/kg orally b.i.d. 9 days)	demyelination area, corpus callosum ([1]; 1 mg/kg orally b.i.d. 9 days)	myelin staining intensity of corpus callosum (percentage of mean density of naïve control) ([1]; 3 mg/kg orally b.i.d. 9 days)	demyelination area, corpus callosum ([1]; 3 mg/kg orally b.i.d. 9 days)	myelin staining intensity of corpus callosum (percentage of mean density of naïve control) ([1]; 10 mg/kg orally b.i.d. 9 days, P<0.05)	demyelination area, corpus callosum ([1]; 10 mg/kg orally b.i.d. 9 days, P<0.01)
	O=C1CCCN1c1ccc(Oc2ccc3c(c2)CCN(C2CCC2)CC3)nc1 [Example compound 1, 1-{6-[(3-cyclobutyl-2,3,4,5-tetrahydro-1H-3-benzazepin-7-yl)oxy]-3-pyridinyl}-2-pyrrolidinone]	18.61%±1.01%	46.82%±3.54%	22.00%±3.41%	38.45%±7.55%	28.32%±7.76%	41.22%±11.14%	26.36%±3.10%	27.62%±5.20%
increased	c1cc2c(cc1-c1noc(CC3CCN(C4CCC4)CC3)n1)OCO2 [Example compound 2, 3-(benzo[d][1,3]dioxol-5-yl)-5-((1-cyclobutylpiperidin-4-yl)methyl)-1,2,4-oxadiazole]								

Reference: patent US20150080380A1, “Therapeutic Uses” (GLAXOSMITHKLINE INTELLECTUAL PROPERTY DEVELOPMENT LIMITED, priority 2012, published 2015)
